Data: patent US20150148304A1, “Novel Peptides and Analogs for Use in the Treatment of Macrophage Activation Syndrome” (Soligenix, Inc., priority 2013, published 2015)
No end group written: not given here.

What was measured:
[1] = acute toxicity (respiratory depression) dose levels, NHP; format: in vivo, cynomologus monkey
Description: (§1) The observed respiratory depression occurred at different dose levels in different species, and was not predicted by allometric scaling. In particular, the mouse appeared to be the most sensitive species with acute toxicity occurring rarely at 60 mg/kg (HED: ˜5 mg/kg) and commonly at 90 mg/kg (HED: ˜7 mg/kg). In contrast in NHP (cynomologus monkey), acute toxicity occurred occasionally at 160 mg/kg (HED: ˜50 mg/kg) and consistently at 240 mg/kg (HED: ˜78 mg/kg).

[2] = test system: macrophage activation syndrome model; test: CpG (TLR-9 agonist) induced model of macrophage activation syndrome; format: in vivo, C57BL/6 mice
Description: Macrophage activation syndrome was simulated in 8-10 week old C57BL/6 mice by repeated administration of the TLR-9 agonist, CpG. CpG (35 μg in 200 μL) or Saline was administered intraperitoneally (IP) on days 0, 2, 4, 7 and 9. SGX94 (200 mg/kg IP) or Saline was administered on days 1, 4 and 7. […] In a repeat study, the same model was used to test administration of saline (Days 1, 4 and 7; control); RIVPA (SEQ ID NO. 5) at 200 mg/kg administered on Days 1, 4 and 7, 400 mg/kg administered on Day 1, 4 and 7 and 400 mg/kg administered on Days 1; 3, 5 and 7. In this experiment CpG (35 μg) was administered on days 0, 2, 4, 7 and 10 and no saline-stimulated controls were used.

[3] = distribution of radiolabelled RIVPA to the mouse CNS; format: in vivo; details: dose levels of 20 or 90 mg/kg
Description: (§2) No effects of RIVPA (SEQ ID NO. 5) have been observed on the central nervous system (CNS) in any study at any dose level and little or no radiolabelled RIVPA (SEQ ID NO. 5) was found in the mouse CNS at dose levels of either 20 or 90 mg/kg.

[4] = cardiovascular (CV)/pulmonary safety pharmacology study; format: in vivo, cynomolgus monkey
Text: In 1 animal, the high dose caused a marked reduction in respiratory rate followed by bradycardia, hypotension and death.
In summary, the major toxicological finding was an acute-onset respiratory depression, accompanied by labored breathing, recumbency and transient decreased activity.

[5] = Phase 1 study in healthy volunteers, pharmacokinetics; format: in vivo, human
Text: Following IV administration in human subjects and consistent with findings in animal studies, RIVPA (SEQ ID NO. 5) is cleared from the circulation within minutes. […] Following the rapid decline, a slower elimination phase was observed. […] Maximum plasma concentrations and total exposure levels were dose-proportional and clearance of RIVPA (SEQ ID NO. 5) from the circulation was rapid, consistent with the mouse and NHP experience.
In light of the high clearance and short elimination half-life, accumulation following daily injection was not expected to occur.

mouse normal blood cells = test: proliferation of normal blood cells in vitro (mouse); format: cell-based
[6] = GLP 14-day repeat-dose IV toxicity study in cynomolgus monkeys; format: in vivo
Description: (§3) Two pilot and 2 definitive repeat-dose toxicity studies were conducted with RIVPA (SEQ ID NO. 5) in mice and cynomolgus monkeys using the intravenous (IV; slow bolus) route of administration.
RIVPA (SEQ ID NO. 5) at 20, 80, 160 mg/kg/day was given IV to cynomolgus monkeys for 14 days. […] In all cases, these clinical signs resolved within a few minutes. […] A dose level of 80 mg/kg/day was considered to be the No-Observed-Adverse-Effect-Level (NOAEL) for this study.
Overall, the NOAEL is considered to be 80 mg/kg/day for cynomolgus monkeys since transient clinical signs were limited to a single study and occurred in only 2 instances of the 98 administrations of the drug at this dose level.
In the latter study, no effect on T-cell, B-cell or NK-cell counts was observed after 14 days of intravenous RIVPA (SEQ ID NO. 5) dosing in the NHP. […] Collectively, there is no indication of a potential for RIVPA (SEQ ID NO. 5) to cause immunotoxicity or non-specific immune activation. No hyperactivation or suppression of adaptive immune responses, or other impact on the phenotypes of cells associated with adaptive immunity, has been detected following RIVPA (SEQ ID NO. 5) administration.

[7] = non-GLP pilot toxicology study, single IV administration, mouse; details: in vivo, IV injection over 30 to 60 seconds, actual dose, read-out: maximum tolerated dose (MTD) of a single administration
Description: as §3
These resolved within a few minutes without detectable residual effects.

whole blood = test: ex vivo LPS stimulation of whole blood from Phase 1 subjects, cytokine/chemokine Activity Ratios; format: cell-based, human; details: dose range 0.15-2 mg/kg; 4 hours in vitro LPS stimulation of whole blood
Description: In ex vivo investigations using blood samples obtained during the Phase 1 healthy human volunteer study, a number of cytokine and chemokine analytes were quantified after 4 hours of in vitro stimulation of whole blood with LPS. The inter-individual variability in analyte levels was larger than any variation in time or response to RIVPA (SEQ ID NO. 5) or placebo administration and the data were therefore self-normalized using the individual pre-dose analyte level to standardize all responses for each individual subject (the Activity Ratio). RIVPA (SEQ ID NO. 5) effects on the analyte Activity Ratios (ARs) were neither constant throughout time, nor linearly dose responsive.

[8] = acute toxicity (respiratory depression) dose levels, mouse; format: in vivo
Description: as §1

[9] = test system: battery of CNS receptors and ion channels; test: interaction with a battery of CNS receptors and ion channels in vitro; format: binding
Description: as §2

[10] = Day 8, 200 mg/kg IP days 1, 4 and 7, relative to CpG stimulated, saline treated group
[11] = Day 10, serum, 200 mg/kg IP, first study
[12] = repeat study, 200 mg/kg Days 1, 4, 7, 400 mg/kg Days 1, 4, 7, 400 mg/kg Days 1, 3, 5, 7
[13] = single IV doses of 20 or 80 mg/kg

RIVPA-NH2 [RIVPA, L-arginyl-L-isoleucyl-L-valyl-L-prolyl-L-alanine-amide]
HED of dose at which acute toxicity occurs occasionally ([1]; NHP 160 mg/kg): ~50 mg/kg | HED of dose at which acute toxicity occurs consistently ([1]; NHP 240 mg/kg): ~78 mg/kg | platelet counts [2, 10]: increased | white blood cell counts [2, 10]: significantly increased | body weights ([2]; Day 10, 200 mg/kg IP, relative to CpG stimulated, saline-treated group): increased | IFNγ levels [2, 11]: not significantly altered | IL-10 levels [2, 11]: not significantly altered | IL-12 levels ([2]; Day 10, serum, 200 mg/kg IP, relative to CpG stimulated, saline-treated group): decreased | changes in saline stimulated, RIVPA treated group ([2]; relative to saline stimulated, saline treated control): no significant changes | IFNγ levels ([2]; repeat study): no significant changes | platelet count [2, 12]: statistically significant increase | white blood cell count [2, 12]: statistically significant increase | radiolabelled RIVPA found in the mouse CNS [3]: little or no | clinical signs at 220 mg/kg ([4]; 220 mg/kg, death in 1 animal): transient, severe clinical signs | cardiac toxicity or QT prolongation ([4]; nonhuman primates): no cardiac toxicity or QT prolongation | clinical signs at 80 mg/kg ([4]; single IV 80 mg/kg, during dosing): transient drooping eye lids and prostration | cardiovascular effects and ECG parameters [4, 13]: no cardiovascular effects or changes in electrocardiogram (ECG) parameters | respiratory effects [4, 13]: No respiratory effects were observed | pre-dose concentrations on Days 5, 6, 7 and Day 8 ([5]; daily IV for 7 days, all subjects): below the lower limit of quantitation | Tmax ([5]; human, plasma, intravenous, after start of infusion, dose range 0.15 mg/kg to 8 mg/kg, read-out: mean time of maximum concentration (Tmax)): 4 to 4.8 min | time after start of infusion for plasma levels to decrease to less than 10 percent of Cmax ([5]; single-dose phase, 4-minute IV infusion): ≤ 9 min | maximum plasma concentrations and total exposure levels versus dose ([5]; single-dose phase, IV): dose-proportional | proliferation of mouse normal blood cells (mouse normal blood cells): did not promote the proliferation | clinical signs at 160 mg/kg ([6]; 160 mg/kg/day IV for 14 days, cynomolgus monkeys, during and shortly after dosing): Transient decreased activity and partially closed eyes | toxicity at 20 and 80 mg/kg/day ([6]; 20 and 80 mg/kg/day IV for 14 days, cynomolgus monkeys): did not result in any evidence of toxicity | immune-related organ weights, histopathology, hematology and clinical chemistry ([6]; NHP 14-day toxicity study): no changes were observed | T-cell, B-cell or NK-cell counts ([6]; after 14 days of intravenous dosing in the NHP): no effect | NOAEL at 14 days ([6]; cynomolgus monkey, in vivo, IV for 14 days, cynomolgus monkeys, read-out: No-Observed-Adverse-Effect-Level (NOAEL) for this study): 80 mg/kg/day | overall NOAEL for cynomolgus monkeys ([6]; overall across studies, IV): 80 mg/kg/day | MTD [7]: 88 mg/kg | anti-inflammatory status (higher TNF RII and IL-1ra, lower TNFα and IL-1β) (whole blood): evidence of an increase | HED of dose at which acute toxicity occurs rarely ([8]; mouse 60 mg/kg): ~5 mg/kg | HED of dose at which acute toxicity occurs commonly ([8]; mouse 90 mg/kg): ~7 mg/kg | interaction with CNS receptors and ion channels [9]: No interaction was detected
